Experimental findings from patent US10144715B2, “Piperazine derivatives as liver X receptor modulators” (priority 2014, dated 2018) are described below.

The target in experiment [1] is Gal4 DNA binding domain fused to the LBD of LXRα in HEK293 cells (Homo sapiens (Human), UniProt Q13133). Briefly: LXR luciferase transcriptional reporter gene assay, agonist mode, LXRα. The format is cell-based. The conditions noted are these: for EC50: read-out: Cell LXRα EC50. (In a reporter assay the amount or activity of a reporter protein is the signal.)
Another experiment deals with LXR α LBD protein (Homo sapiens (Human), UniProt Q13133). Description: Human LXRα coactivator recruitment FRET assay, agonist mode. The conditions noted are these: agonist mode. The format is biochemical. As to the method: Two μL of the DMSO solutions were transferred to the plate and 38 μL of 10 nM LXRα-LBD or LXRβ-LBD (2×) were added immediately to the wells. The plate was shaken for 5 min at rt on an orbital micro shaker (DPC MicroMix® 5), after which 40 μL of 200 nM fluorescein-SRC2-3 peptide and 20 nM Terbium-anti-GST-antibody (Cat# PV3550, Life Technologies, Grand Island, N.Y.) solution (4×) were added to all. The plate was sealed and shaken for 2 min at rt, and incubated at rt for 2 h without agitation. […] The delay and window times were set at 100 and 200 microseconds, respectively. […] The percent control vs. compound concentration data were fit into a four-parameter model, and EC50 values were calculated from the fit as the concentrations corresponding to the inflection points on the concentration-response curves.

Where two headings read alike, the source gives them in different places.

Chain of LXR α LBD protein (Q13133 209-447): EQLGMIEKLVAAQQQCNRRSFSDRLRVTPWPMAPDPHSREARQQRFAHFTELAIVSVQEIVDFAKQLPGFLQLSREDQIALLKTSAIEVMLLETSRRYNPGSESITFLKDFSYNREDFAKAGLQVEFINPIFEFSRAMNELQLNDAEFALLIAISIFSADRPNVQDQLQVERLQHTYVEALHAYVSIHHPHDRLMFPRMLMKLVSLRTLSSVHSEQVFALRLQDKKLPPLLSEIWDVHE
Chain of Gal4 DNA binding domain fused to the LBD of LXRα in HEK293 cells (Q13133 209-447): as above

Regarding `CS(=O)(=O)c1cccc(N2CCN(C[C@H]3CC[C@H](C(F)F)CC3)[C@H](c3ccccc3)C2)c1` (single isomer, unassigned) [48-18], in experiment [1], the “Cell LXRα efficacy” value is 18796 (7) % and the 50% effective concentration (EC50) worked out at 18.8 µM. Moreover, the EC50 on LXR α LBD protein was over 50 µM.
Regarding `CC(C)COC(=O)N1CCN(c2cccc(S(C)(=O)=O)c2)CC1c1ccccc1` (stereo not shown) [5-5, isobutyl 4-(3-(methylsulfonyl)phenyl)-2-phenylpiperazine-1-carboxylate], the “Cell LXRα efficacy” value in experiment [1] is 3049 (6) %. The EC50 is 3.05 µM in experiment [1] (agonist mode) and 2.5 µM at LXR α LBD protein. Further, the “FRET LXRα efficacy” value at LXR α LBD protein is 33%.
For the molecule `CS(=O)(=O)c1cccc(N2CCN(Cc3cccc(C(F)(F)F)c3)C(c3ccccc3)C2)c1` (stereo not shown) [46-13, 4-(3-(methylsulfonyl)phenyl)-2-phenyl-1-(3-(trifluoromethyl)benzyl)piperazine], the EC50 in experiment [1] (agonist mode) was over 20 µM. At LXR α LBD protein, the response was half-maximal at 1.9 µM (EC50) and the “FRET LXRα efficacy” value is reported as 28%.
With `CC(C)[C@@H]1CN(c2ccc(C(F)(F)F)c(S(C)(=O)=O)c2)CCN1C(=O)OC(C)(C)C` [Cpd No 3-2, tert-butyl (R)-2-isopropyl-4-(3-(methylsulfonyl)-4-(trifluoromethyl)phenyl)piperazine-1-carboxylate], the “Cell LXRα efficacy” value in experiment [1] is on record as 14412 (19) %. Besides, the EC50 in experiment [1] (agonist mode) turned out to be 14.4 µM. At LXR α LBD protein, the EC50 turned out to be 12 µM and the “FRET LXRα efficacy” value came out at 54%.
With `CS(=O)(=O)c1cccc(N2CCN(Cc3ccccc3)C(c3ccccc3)C2)c1` (stereo not shown) [46-4, 1-benzyl-4-(3-(methylsulfonyl)phenyl)-2-phenylpiperazine], the EC50 in experiment [1] (agonist mode) is over 20 µM; on LXR α LBD protein, 0.875 µM. The “FRET LXRα efficacy” value on LXR α LBD protein was 41%.
The matching figures for `Cc1ccc(CN2CCN(c3cccc(S(C)(=O)=O)c3)CC2c2ccccc2)cn1` (stereo not shown) [46-40, 1-((6-methylpyridin-3-yl)methyl)-4-(3-(methylsulfonyl)phenyl)-2-phenylpiperazine]: over 20 µM, 4.12 µM and 38%.
Turning to `CC(C)[C@@H]1CN(c2ccc(C#N)c(S(C)(=O)=O)c2)CCN1c1cc(C(F)(F)F)ccn1` [7-39, (R)-4-(3-isopropyl-4-(4-(trifluoromethyl)pyridin-2-yl)piperazin-1-yl)-2-(methylsulfonyl)benzonitrile], in experiment [1], the “Cell LXRα efficacy” value is recorded as 1502 (80) %. Moreover, the concentration giving a half-maximal response (EC50) in experiment [1] (agonist mode) came to 1.5 µM. On LXR α LBD protein, the EC50 is 1.43 µM and the “FRET LXRα efficacy” value is reported as 191%.
In the case of “tert-butyl (S)-2-isobutyl-4-(3-(methylsulfonyl)phenyl)piperazine-1-carboxylate [1-2]”, in experiment [1], the “Cell LXRα efficacy” value is on record as 9219 (6) % and the half-maximal effective concentration (EC50) amounted to 9.22 µM. In addition, on LXR α LBD protein, the EC50 was 6.81 µM and the “FRET LXRα efficacy” value is reported as 55%.
Consider `CC(C)[C@@H]1CN(c2ccc(C#N)c(S(C)(=O)=O)c2)CCN1c1cccc(C(F)(F)F)n1` [7-38, (R)-4-(3-isopropyl-4-(6-(trifluoromethyl)pyridin-2-yl)piperazin-1-yl)-2-(methylsulfonyl)benzonitrile], for which the “Cell LXRα efficacy” value in experiment [1] is 2960 (86) %. Moreover, in experiment [1] (agonist mode), the 50% effective concentration (EC50) came to 2.96 µM. On LXR α LBD protein, the concentration for a half-maximal effect (EC50) is 3.15 µM and the “FRET LXRα efficacy” value came to 204%.
For `CS(=O)(=O)c1cccc(N2CCN(Cc3ccc(C(F)(F)F)nc3)C(c3ccccc3Br)C2)c1` (stereo not shown) [46-60, 2-(2-bromophenyl)-4-(3-(methylsulfonyl)phenyl)-1-((6-(trifluoromethyl)pyridin-3-yl)methyl)piperazine], the “Cell LXRα efficacy” value in experiment [1] is on record as 4383 (33) %. Moreover, the EC50 in experiment [1] (agonist mode) is 4.38 µM. For the same molecule, on LXR α LBD protein, the “FRET LXRα efficacy” value stood at 39%.
Regarding `CS(=O)(=O)c1cc(N2CCN(Cc3ccc(C(F)(F)F)nc3)C(c3ccccc3)C2)ccc1C(N)=O` (stereo not shown) [46-58, 2-(methylsulfonyl)-4-(3-phenyl-4-((6-(trifluoromethyl)pyridin-3-yl)methyl)piperazin-1-yl)benzamide], the “Cell LXRα efficacy” value in experiment [1] is 6986 (8) %. In addition, the EC50 in experiment [1] (agonist mode) is 6.99 µM; at LXR α LBD protein it was over 50 µM.
For the molecule `CS(=O)(=O)c1cccc(N2CCN(C[C@H]3CC[C@@H](C(F)F)CC3)[C@H](c3ccccc3)C2)c1` (single isomer, unassigned) [48-16], in experiment [1], the “Cell LXRα efficacy” value is 2437 (10) % and the half-maximal effective concentration (EC50) came to 2.44 µM. Besides, at LXR α LBD protein, a half-maximal response (EC50) required 2.45 µM and the “FRET LXRα efficacy” value came out at 17%.
As to `CS(=O)(=O)c1cccc(N2CCN(c3ccc(C(F)(F)F)cn3)[C@@H](c3ccccc3)C2)c1` [7-40, (S)-4-(3-(methylsulfonyl)phenyl)-2-phenyl-1-(5-(trifluoromethyl)pyridin-2-yl)piperazine], the concentration giving a half-maximal response (EC50) was over 20 µM in experiment [1] (agonist mode) and 45.1 µM on LXR α LBD protein. Besides, the “FRET LXRα efficacy” value on LXR α LBD protein came to 70%.
Take `CS(=O)(=O)c1cccc(N2CCN(Cc3ccc(C(F)(F)F)c(Cl)c3)[C@@H](Cc3ccccc3)C2)c1` [Cpd No 45-1, (S)-2-benzyl-1-(3-chloro-4-(trifluoromethyl)benzyl)-4-(3-(methylsulfonyl)phenyl)piperazine]: in experiment [1], the “Cell LXRα efficacy” value is listed as 3618 (61) % and the EC50 came out at 3.62 µM. Further, the “FRET LXRα efficacy” value on LXR α LBD protein was 39%.
On to `CC(C)[C@@H]1CN(c2ccc(C#N)c(S(C)(=O)=O)c2)CCN1c1ccc(C(F)(F)F)cn1` [7-37, (R)-4-(3-isopropyl-4-(5-(trifluoromethyl)pyridin-2-yl)piperazin-1-yl)-2-(methylsulfonyl)benzonitrile], for which the “Cell LXRα efficacy” value in experiment [1] is listed as 1702 (96) %. The EC50 in experiment [1] (agonist mode) is 1.7 µM. For the same molecule, at LXR α LBD protein, the EC50 was 2.64 µM and the “FRET LXRα efficacy” value stood at 220%.
Take `CS(=O)(=O)c1cccc(N2CCN(Cc3ccc(C(F)(F)F)nc3)C(c3ccc(F)cc3)C2)c1` (stereo not shown) [46-51, 2-(4-fluorophenyl)-4-(3-(methylsulfonyl)phenyl)-1-((6-(trifluoromethyl)pyridin-3-yl)methyl)piperazine]: the “Cell LXRα efficacy” value in experiment [1] was 3658 (17) %. The half-maximal effective concentration (EC50) in experiment [1] (agonist mode) turned out to be 3.66 µM. Moreover, on LXR α LBD protein, the EC50 was determined as 2.3 µM and the “FRET LXRα efficacy” value stood at 41%.
The matching figures for `Cc1cc(C)nc(N2CCN(c3cccc(S(C)(=O)=O)c3)C[C@H]2C(C)C)n1` [Cpd No 7-3, (R)-2-(2-isopropyl-4-(3-(methylsulfonyl)phenyl)piperazin-1-yl)-4,6-dimethylpyrimidine]: 7923 (24) %, 7.92 µM, 0.51 µM and 36%.
Regarding `COC(=O)[C@@H]1CN(c2cccc(S(C)(=O)=O)c2)CCN1C(=O)OC(C)(C)C` [1-4, 1-(tert-butyl) 2-methyl (S)-4-(3-(methylsulfonyl)phenyl)piperazine-1,2-dicarboxylate], the “Cell LXRα efficacy” value in experiment [1] is listed as 14195 (49) %. The 50% effective concentration (EC50) in experiment [1] (agonist mode) came out at 14.2 µM. Further, at LXR α LBD protein, the response was half-maximal at 13.5 µM (EC50) and the “FRET LXRα efficacy” value was found to be 67%.
With `CC(C)OC(=O)N1CCN(c2cccc(S(C)(=O)=O)c2)CC1c1ccccc1` (stereo not shown) [5-8, isopropyl 4-(3-(methylsulfonyl)phenyl)-2-phenylpiperazine-1-carboxylate], in experiment [1] (agonist mode), the EC50 is over 20 µM. On LXR α LBD protein, the EC50 is 19.8 µM and the “FRET LXRα efficacy” value was found to be 41%.

As a reminder, the EC50 is the concentration giving half of the maximal effect.
